Measured values taken from a compilation of properties of binary mixtures (doi:10.1016/j.molliq.2016.02.018).

Assay: xn = mol fraction of the nth substance listed
Conditions: 101 kPa

CC(=O)[O-].CCCC[n+]1ccn(C)c1 + CCCC[n+]1ccn(C)c1.O=S(=O)([N-]S(=O)(=O)C(F)(F)F)C(F)(F)F
Conditions	electrical conductivity, 283.15 K [S/m]	electrical conductivity, 298.15 K [S/m]	electrical conductivity, 313.15 K [S/m]	electrical conductivity, 314.3 K [S/m]	electrical conductivity, 333.15 K [S/m]	viscosity, 283.15 K [mPa·s]	viscosity, 298.15 K [mPa·s]	viscosity, 313.15 K [mPa·s]	viscosity, 314.3 K [mPa·s]	viscosity, 333.15 K [mPa·s]
x2 = 0	–	0.0522	–	0.146	0.369	–	441	–	132	54.7
x2 = 0.1057	–	0.0683	–	–	–	–	343	–	–	–
x2 = 0.2396	0.0292	0.0856	0.196	–	0.46	817	255	102	–	40.3
x2 = 0.321	–	–	–	0.237	–	–	–	–	70	–
x2 = 0.3662	–	0.109	–	–	0.514	–	192	–	–	34.3
x2 = 0.5245	0.0623	0.153	0.309	0.33	0.639	357	134	62	–	27.9
x2 = 0.6541	0.0888	0.203	–	–	0.755	248	101	–	–	23.5
x2 = 0.8097	0.133	–	–	–	0.932	165	–	–	–	19.4

CCCC[n+]1ccn(C)c1.O=S(=O)([N-]S(=O)(=O)C(F)(F)F)C(F)(F)F + CC(=O)[O-].CCCC[n+]1ccn(C)c1
x1 = 1
Conditions	electrical conductivity [S/m]	viscosity [mPa·s]
283.15 K	0.207	106
298.15 K	0.404	51
333.15 K	1.18	15.5
